Laboratory results reported in the NIST ThermoML archive (doi:10.1016/j.jct.2015.01.004).
Several values for one entry are separate records, joined by “and”; a condition that tells them apart may be missing. Identical values can stand only once.

Experiment: molar heat capacity at constant pressure; xn = mol fraction of the nth substance listed
Conditions: 100 kPa

[Si] [silicon] + [Li]
Conditions | molar heat capacity at constant pressure
2.03 K, Crystal of intercomponent compound 1, relaxation calorimetry, x2 = 0.81 | 0.0088 J/K/mol
2.03 K, Crystal of intercomponent compound 2, relaxation calorimeter, x2 = 0.804 | 0.0022 J/K/mol
2.13 K, Crystal of intercomponent compound 1, relaxation calorimetry, x2 = 0.81 | 0.0091 J/K/mol
2.13 K, Crystal of intercomponent compound 2, relaxation calorimeter, x2 = 0.804 | 0.0023 J/K/mol
2.14 K, Crystal of intercomponent compound 2, relaxation calorimeter, x2 = 0.804 | 0.0022 J/K/mol
2.25 K, Crystal of intercomponent compound 1, relaxation calorimetry, x2 = 0.81 | 0.0096 J/K/mol
2.25 K, Crystal of intercomponent compound 2, relaxation calorimeter, x2 = 0.804 | 0.0024 J/K/mol and 0.0023 J/K/mol
2.37 K, Crystal of intercomponent compound 1, relaxation calorimetry, x2 = 0.81 | 0.0101 J/K/mol
2.37 K, Crystal of intercomponent compound 2, relaxation calorimeter, x2 = 0.804 | 0.0024 J/K/mol and 0.0025 J/K/mol
2.49 K, Crystal of intercomponent compound 1, relaxation calorimetry, x2 = 0.81 | 0.0107 J/K/mol
2.49 K, Crystal of intercomponent compound 2, relaxation calorimeter, x2 = 0.804 | 0.0026 J/K/mol
2.5 K, Crystal of intercomponent compound 2, relaxation calorimeter, x2 = 0.804 | 0.0025 J/K/mol
2.63 K, Crystal of intercomponent compound 1, relaxation calorimetry, x2 = 0.81 | 0.0111 J/K/mol
2.63 K, Crystal of intercomponent compound 2, relaxation calorimeter, x2 = 0.804 | 0.0028 J/K/mol and 0.0025 J/K/mol
2.77 K, Crystal of intercomponent compound 1, relaxation calorimetry, x2 = 0.81 | 0.0116 J/K/mol
2.77 K, Crystal of intercomponent compound 2, relaxation calorimeter, x2 = 0.804 | 0.0028 J/K/mol
2.92 K, Crystal of intercomponent compound 1, relaxation calorimetry, x2 = 0.81 | 0.0121 J/K/mol
2.92 K, Crystal of intercomponent compound 2, relaxation calorimeter, x2 = 0.804 | 0.0031 J/K/mol and 0.003 J/K/mol
3.08 K, Crystal of intercomponent compound 1, relaxation calorimetry, x2 = 0.81 | 0.0126 J/K/mol
3.08 K, Crystal of intercomponent compound 2, relaxation calorimeter, x2 = 0.804 | 0.0032 J/K/mol and 0.003 J/K/mol
3.24 K, Crystal of intercomponent compound 1, relaxation calorimetry, x2 = 0.81 | 0.0133 J/K/mol
3.24 K, Crystal of intercomponent compound 2, relaxation calorimeter, x2 = 0.804 | 0.0035 J/K/mol and 0.0032 J/K/mol
3.41 K, Crystal of intercomponent compound 1, relaxation calorimetry, x2 = 0.81 | 0.0135 J/K/mol
3.41 K, Crystal of intercomponent compound 2, relaxation calorimeter, x2 = 0.804 | 0.0036 J/K/mol
3.6 K, Crystal of intercomponent compound 1, relaxation calorimetry, x2 = 0.81 | 0.0141 J/K/mol
3.6 K, Crystal of intercomponent compound 2, relaxation calorimeter, x2 = 0.804 | 0.0039 J/K/mol and 0.0036 J/K/mol
3.79 K, Crystal of intercomponent compound 1, relaxation calorimetry, x2 = 0.81 | 0.015 J/K/mol
3.79 K, Crystal of intercomponent compound 2, relaxation calorimeter, x2 = 0.804 | 0.0041 J/K/mol and 0.004 J/K/mol
3.99 K, Crystal of intercomponent compound 1, relaxation calorimetry, x2 = 0.81 | 0.0157 J/K/mol
3.99 K, Crystal of intercomponent compound 2, relaxation calorimeter, x2 = 0.804 | 0.0044 J/K/mol and 0.0042 J/K/mol
4.2 K, Crystal of intercomponent compound 1, relaxation calorimetry, x2 = 0.81 | 0.0163 J/K/mol
4.2 K, Crystal of intercomponent compound 2, relaxation calorimeter, x2 = 0.804 | 0.0047 J/K/mol and 0.0044 J/K/mol
4.43 K, Crystal of intercomponent compound 1, relaxation calorimetry, x2 = 0.81 | 0.0172 J/K/mol
4.43 K, Crystal of intercomponent compound 2, relaxation calorimeter, x2 = 0.804 | 0.0048 J/K/mol and 0.005 J/K/mol
4.66 K, Crystal of intercomponent compound 2, relaxation calorimeter, x2 = 0.804 | 0.0051 J/K/mol
4.67 K, Crystal of intercomponent compound 1, relaxation calorimetry, x2 = 0.81 | 0.0175 J/K/mol
4.67 K, Crystal of intercomponent compound 2, relaxation calorimeter, x2 = 0.804 | 0.0052 J/K/mol
4.91 K, Crystal of intercomponent compound 2, relaxation calorimeter, x2 = 0.804 | 0.0056 J/K/mol
4.92 K, Crystal of intercomponent compound 1, relaxation calorimetry, x2 = 0.81 | 0.0182 J/K/mol
4.92 K, Crystal of intercomponent compound 2, relaxation calorimeter, x2 = 0.804 | 0.0054 J/K/mol
5 K, Crystal of intercomponent compound 1, relaxation calorimetry + DSC, x2 = 0.81 | 0.0184 J/K/mol
5 K, Crystal of intercomponent compound 2, relaxation calorimetry + DSC, x2 = 0.804 | 0.0056 J/K/mol
5.18 K, Crystal of intercomponent compound 1, relaxation calorimetry, x2 = 0.81 | 0.0193 J/K/mol
5.18 K, Crystal of intercomponent compound 2, relaxation calorimeter, x2 = 0.804 | 0.006 J/K/mol and 0.0057 J/K/mol
5.46 K, Crystal of intercomponent compound 2, relaxation calorimeter, x2 = 0.804 | 0.0064 J/K/mol
5.47 K, Crystal of intercomponent compound 1, relaxation calorimetry, x2 = 0.81 | 0.0201 J/K/mol
5.47 K, Crystal of intercomponent compound 2, relaxation calorimeter, x2 = 0.804 | 0.0061 J/K/mol
5.76 K, Crystal of intercomponent compound 1, relaxation calorimetry, x2 = 0.81 | 0.0206 J/K/mol
5.76 K, Crystal of intercomponent compound 2, relaxation calorimeter, x2 = 0.804 | 0.007 J/K/mol and 0.0066 J/K/mol
6.07 K, Crystal of intercomponent compound 1, relaxation calorimetry, x2 = 0.81 | 0.0218 J/K/mol
6.07 K, Crystal of intercomponent compound 2, relaxation calorimeter, x2 = 0.804 | 0.0075 J/K/mol and 0.0071 J/K/mol
6.39 K, Crystal of intercomponent compound 1, relaxation calorimetry, x2 = 0.81 | 0.0227 J/K/mol
6.39 K, Crystal of intercomponent compound 2, relaxation calorimeter, x2 = 0.804 | 0.0083 J/K/mol and 0.0079 J/K/mol
6.73 K, Crystal of intercomponent compound 1, relaxation calorimetry, x2 = 0.81 | 0.0242 J/K/mol
6.73 K, Crystal of intercomponent compound 2, relaxation calorimeter, x2 = 0.804 | 0.0091 J/K/mol and 0.0088 J/K/mol
7.09 K, Crystal of intercomponent compound 1, relaxation calorimetry, x2 = 0.81 | 0.0252 J/K/mol
7.09 K, Crystal of intercomponent compound 2, relaxation calorimeter, x2 = 0.804 | 0.0098 J/K/mol and 0.01 J/K/mol
7.47 K, Crystal of intercomponent compound 1, relaxation calorimetry, x2 = 0.81 | 0.0267 J/K/mol
7.47 K, Crystal of intercomponent compound 2, relaxation calorimeter, x2 = 0.804 | 0.0113 J/K/mol and 0.0109 J/K/mol
7.87 K, Crystal of intercomponent compound 1, relaxation calorimetry, x2 = 0.81 | 0.0284 J/K/mol
7.87 K, Crystal of intercomponent compound 2, relaxation calorimeter, x2 = 0.804 | 0.0126 J/K/mol and 0.0123 J/K/mol
8.29 K, Crystal of intercomponent compound 2, relaxation calorimeter, x2 = 0.804 | 0.0143 J/K/mol and 0.0139 J/K/mol
8.3 K, Crystal of intercomponent compound 1, relaxation calorimetry, x2 = 0.81 | 0.0304 J/K/mol
8.74 K, Crystal of intercomponent compound 1, relaxation calorimetry, x2 = 0.81 | 0.0327 J/K/mol
8.74 K, Crystal of intercomponent compound 2, relaxation calorimeter, x2 = 0.804 | 0.016 J/K/mol and 0.0162 J/K/mol
9.2 K, Crystal of intercomponent compound 1, relaxation calorimetry, x2 = 0.81 | 0.0351 J/K/mol
9.2 K, Crystal of intercomponent compound 2, relaxation calorimeter, x2 = 0.804 | 0.0183 J/K/mol and 0.0187 J/K/mol
9.69 K, Crystal of intercomponent compound 2, relaxation calorimeter, x2 = 0.804 | 0.0216 J/K/mol and 0.0208 J/K/mol
9.7 K, Crystal of intercomponent compound 1, relaxation calorimetry, x2 = 0.81 | 0.038 J/K/mol
10 K, Crystal of intercomponent compound 1, relaxation calorimetry + DSC, x2 = 0.81 | 0.0403 J/K/mol
10 K, Crystal of intercomponent compound 2, relaxation calorimetry + DSC, x2 = 0.804 | 0.0233 J/K/mol
10.22 K, Crystal of intercomponent compound 1, relaxation calorimetry, x2 = 0.81 | 0.0412 J/K/mol
10.22 K, Crystal of intercomponent compound 2, relaxation calorimeter, x2 = 0.804 | 0.0245 J/K/mol and 0.025 J/K/mol
10.75 K, Crystal of intercomponent compound 1, relaxation calorimetry, x2 = 0.81 | 0.0449 J/K/mol
10.75 K, Crystal of intercomponent compound 2, relaxation calorimeter, x2 = 0.804 | 0.0286 J/K/mol and 0.0291 J/K/mol
11.32 K, Crystal of intercomponent compound 1, relaxation calorimetry, x2 = 0.81 | 0.0492 J/K/mol
11.32 K, Crystal of intercomponent compound 2, relaxation calorimeter, x2 = 0.804 | 0.0342 J/K/mol and 0.0335 J/K/mol
11.93 K, Crystal of intercomponent compound 1, relaxation calorimetry, x2 = 0.81 | 0.0547 J/K/mol
11.93 K, Crystal of intercomponent compound 2, relaxation calorimeter, x2 = 0.804 | 0.0403 J/K/mol and 0.0398 J/K/mol
12.56 K, Crystal of intercomponent compound 1, relaxation calorimetry, x2 = 0.81 | 0.0613 J/K/mol
